Results on three molecules are retold here after patent publication US20090280543A1, “REGIOSELECTIVE GLYCOSYLATION” (THE UNIVERSITY OF YORK, priority 2005, published 2009).

A short description of data set [1]: D-glucose adsorption by PVPP, HPAEC of samples treated with and without PVPP. It counts as physicochemical. The protocol: FIG. 8: Lack of D-glucose adsorption by PVPP.
High Performance Anion Exchange Chromatography (HPAEC): HPAEC coupled with integrated amperometric detection (IAD) (Dionex, U.K.) was used to detect D-glucose using a CarboPac™ PA10 column (2×250 mm, Dionex). Seven different monosaccharides including L-Fucose, L-rhamnose, D-galactose, L-arabinose, D-glucose, D-manose and D-xylose were used as references. The D-glucose was separated isocratically at a flow rate 0.35 mL/min with 24 mM NaOH (pH>12.5) over 18 min. The column was then washed with a linear gradient of NaOH from 24 mM to 200 mM over 5 min. The IAD waveform was set following manufacturer's recommendation.
Stage 3, detection: 50 μl of the reaction mix were transferred to a 96-well filtration plate (Abgene, U.K.), mixed with an equal volume of PVPP aqueous suspension (25 g/L), shaken for 1 h at 25° C. before centrifugation (1000 g, 5 min). To each filtrate, 50 mM 2-morpholino-ethanesulfonic acid buffer (MES) (pH 7.0), ABTS™ (0.1 mM), peroxidase (2 U) and glucose oxidase (2 U) were added to a final volume of 125 μl. The formation of the green dye was monitored at 405 nm at 30 min using a plate reader (Bio-Tec Instruments Inc., U.S.A).

In data set [2] the test system is E. coli transformed with pGEX-2T vector. Put plainly: Hydrolysis of esculin in bacterial culture, RP-HPLC. The note with it: 44 h at 25° C. The protocol:
(§1) FIG. 5: Investigation of ecsulin hydrolysis. Neither a) autohydrolysis in MES buffer nor b) hydrolysis in bacterial culture of esculin (12) was detected. Samples at 24 h, 44 h incubation and additionally a standard of the aglycone esculetin (11) are illustrated;
(§2) For these controls, samples were incubated for 44 h at 25° C. as in the standard experimental conditions, and analyzed by RP-HPLC to confirm the lack of aglycone (esculetin, 11) (FIG. S1).

Data set [3] in a line: Autohydrolysis of esculin in MES buffer, RP-HPLC. The note with it: 50 mM MES buffer (pH 7.0), 44 h at 25° C. In kind it is physicochemical. The method, then: as §1, §2
Data set [4] is described as follows: Whole-cell biocatalysis screen of GT library against the aglycone daidzein (RP-HPLC of glucosides). It counts as cell-based, E. coli. Conditions: whole-cell biocatalysis, 500 µM aglycone, 44 h, 25° C. The source says: FIG. 3: Screening of a GT-library against the aglycone daidzein. a) The readings at A405 nm for D-glucose detection are presented in a colored code format. b) Examples of RP-HPLC trace of active and non-active GTs in whole-cell biocatalysis are illustrated. c) The regioselectivity of the active GTs towards daidzein, defined by the percentage of a regiospecific glucoside in the total amount of monoglucosides formed;
Reverse-phase HPLC (RP-HPLC): RP-HPLC (Agilent 1100 system with Photodiode Array Detector, Agilent, U.K.) analysis was carried out using a Columbus 5-μ C18 column (150×3.20 mm, Phenomenex, U.K.). Glucosides were separated from their respective aglycones using a linear gradient of acetonitrile/0.1% formic acid (v/v) in H2O: 10-45% (trans-resveratrol/glucosides), 10-50% (daidzein/glucosides) at 0.5 mL/min over 20 min and monitored at 280 nm and 250 nm. Separation of scopoletin/scopolin and esculetin/esculin was carried out using the conditions described previously.^[11]
The cDNA library of 96 Arabidopsis thaliana GTs was subcloned into the multiple cloning site of the glutathione-S-transferase (GST) gene fusion vector pGEX-2T (Amersham Biosciences, U.K.) as described previously^[10] and transformed into the strain E. coli BL21 (DE3) for use in the screening method.
Stage 1, biotransformation: single colonies of the GT library grown on LB-agar plates overnight were transferred to individual wells in a 96-well bacterial culture plate containing 400 μl 2×YT medium (16 g/L bacto tryptone, 10 g/L yeast extract, 5 g/L NaCl) and 50 μg/mL ampicillin. The plate was covered with an adhesive plate seal (Abgene, U.K.) and incubated at 37° C. (250 rpm). The bacterial growth was monitored at 595 nm by a plate reader. After 4 h, the cultures had reached exponential phase. The plate was centrifuged (4000 g, 10 min), the supernatants discarded and cell pellets were resuspended in isopropyl-D-thiogalactopyranoside (0.1 mM), 2-(N-morpholino)ethanesulfonic acid (50 mM, pH 7.0), ampicillin (50 μg/mL), L-arabinose (10 g/L) and 500 µM of aglycone to a total whole-cell reaction volume of 400 μl/well. The 96-well plate was closed with a gas permeable adhesive plate seal, wrapped in alu foil for light protection and incubated at 25° C. (250 rpm). After 44 h the cultures were centrifuged (4000 g, 15 min) and the supernatants analyzed. […]
Stage 3, detection: 50 μl of the reaction mix were transferred to a 96-well filtration plate (Abgene, U.K.), mixed with an equal volume of PVPP aqueous suspension (25 g/L), shaken for 1 h at 25° C. before centrifugation (1000 g, 5 min). […] The formation of the green dye was monitored at 405 nm at 30 min using a plate reader (Bio-Tec Instruments Inc., U.S.A). […]

As to `O=C[C@H](O)[C@@H](O)[C@H](O)[C@H](O)CO` [D-glucose], in data set [1], the “loss of D-glucose by filtration through PVPP” value was “no significant loss”. Take `O=c1ccc2cc(O[C@@H]3O[C@H](CO)[C@@H](O)[C@H](O)[C@H]3O)c(O)cc2o1` [esculin, esculetin-6-O-glucoside]: in data set [2], the “hydrolysis in the presence of the bacterial culture” value is listed as “not hydrolyzed”. Also, in data set [3], the autohydrolysis during incubation result is “lack of autohydrolysis”.

B1: GT 73C4: Arabidopsis thaliana glycosyltransferase, SEQ ID NO: 30 (nucleotide), 121 (amino acid) (protein, listed as Arabidopsis thaliana)
chain: MASEKSHKVHPPLHFILFPFMAQGHMIPMIDIARLLAQRGATVTIVTTRYNAGRFENVLSRAMESGLPINIVHVNFPYQEFGLPEGKENIDSYDSMELMVPFFQAVNMLEDPVMKLMEEMKPRPSCIISDLLLPYTSKIARKFSIPKIVFHGTGCFNLLCMHVLRRNLEILKNLKSDKDYFLVPSFPDRVEFTKPQVPVETTASGDWKAFLDEMVEAEYTSYGVIVNTFQELEPAYVKDYTKARAGKVWSIGPVSLCNKAGADKAERGNQAAIDQDECLQWLDSKEDGSVLYVCLGSICNLPLSQLKELGLGLEKSQRSFIWVIRGWEKYNELYEWMMESGFEERIKERGLLIKGWSPQVLILSHPSVGGFLTHCGWNSTLEGITSGIPLITWPLFGDQFCNQKLVVQVLKAGVSAGVEEVMKWGEEEKIGVLVDKEGVKKAVEELMGASDDAKERRRRVKELGESAHKAVEEGGSSHSNITYLLQDIMQQVKSKN
As to B1, the “daidzein glucosides formed / positions glycosylated” value in data set [4] is on record as “produced the diglucoside in addition to the monoglucosides”.
